This test deals with apomorphine-dependent erection. Put plainly: Apomorphine-dependent erection in low-potency rats. It is filed as in vivo, Wistar rats. The following applies: compound 5 x 10 mg/kg intraperitoneally every 48 hours + apomorphine 0.1 mg/kg subcutaneously; 20 minutes monitoring; one value for the two compounds of the line. The source says:
One of the mechanisms regulating the sexual function of mammals is associated with functioning of the dopaminergic system of the brain. It is well known that a non-selective D1/D2 agonist apomorphine in low doses causes penile erection in rodents (Giuliano F., Allard J. Dopamine and male sexual function. Eur. Urol., 2001, 40 (6), 601-608; Giuliano F., Allard J., Rampin O. et. al. Pro-erectile effect of systemic apomorphine: existence of a spinal site action. J. Urol., 2002, 167 (1), 402-406; Brien S. E., Smallegange C., Gofton W. T., et. al. Development of a rat model of sexual performance anxiety: effect of behavioral and pharmacological hyperadrenergic stimulation on apomorphine-induced erections. Int. J. Impot. Res., 2002, 14 (2), 107-115.). In this connection, we have studied the effects of the compounds according to the invention on apomorphine-dependent erection in rats.
Nine groups of adult male Wistar rats weighing 350-450 g maintained at the normal (not inverted) light cycle were used in the experiments. To study the effect of the compounds on the sexual function, low-potency animals with a single erection were selected. Control group No. 1 (n=7) was composed of animals not injected with the compounds according to the invention. The animals of groups Nos. 2-9 (n=7) were injected with one of the compounds according to the invention selected from the group of compounds 2, 8, 9, 15, 19, 25, 31, 36, intraperitoneally in a course of 5 injections at a dose of 10 mg/kg with an interval between the injections 48 hours. Apomorphine was dissolved in 0.1% aqueous solution of ascorbic acid and then was injected to all animal subcutaneously at a dose of 0.1 mg/kg during 24-28 hours after the last injection of the compounds according to the invention. The monitoring of sexual activity was made individually for each animal immediately after the administration of apomorphine; the monitoring time was 20 minutes. The following indices were registered: the time of beginning of the first erection, time intervals between the erections, the number of erections for the entire period of observation.
The statistical analysis of the results was made using T-test and ξ-square test. The results are given in Table 3 as means±standard error of means.
In the case of `O=c1[nH][nH]c(=O)c2nccnc12.[Li]` [Compound 25, lithium salt of pyrazino[2,3-d]-6H-pyridazine-5,8-dione], the “Latent period of first erection” value came out at 5.24 ± 0.19 min; the “Number of erection for the entire period of observation” value (“Number of erection” for short) amounted to 3.29 ± 0.27; the “Time between 1st and 2nd erections” value turned out to be 3.75 ± 0.64 min; the “Time between 3rd and 2nd erections” value amounted to 5.12 ± 0.87 min.

Take `Nc1ncnc2c(=O)n([C@@H]3O[C@H](CO)[C@@H](O)[C@H]3O)[nH]c(=O)c12.[Na]` [Compound 31, sodium salt of 4-amino-7-(β-D-ribofuranosile)pyrimido[4,5-d]-6H-pyridazine-5,8-dione]: the “Latent period of first erection” value was determined as 5.12 ± 0.24 min; the “Number of erection” value turned out to be 3.32 ± 0.31; the “Time between 1st and 2nd erections” value was 3.34 ± 0.69 min; the “Time between 3rd and 2nd erections” value turned out to be 5.02 ± 1.01 min.

Consider `Nc1ncc2c(=O)[nH][nH]c(=O)c2n1.[Na]` [Compound 36, sodium salt of 2-amino-pyrimido[4,5-d]-6H-pyridazine-5,8-dione], for which the “Latent period of first erection” value is 5.12 ± 0.24 min; the “Number of erection” value was found to be 3.32 ± 0.31; the “Time between 1st and 2nd erections” value came to 3.34 ± 0.69 min; the “Time between 3rd and 2nd erections” value was 5.02 ± 1.01 min.

The values are drawn from patent US7776833B2, “Use of cyclic bioisosters of purine system derivatives for treating diseases produced by disorders of niterergic and dopaminergic systems” (priority 2003, dated 2010).
